Data reported in publication PMC9869995, “Discovery of benzochromene derivatives first example with dual cytotoxic activity against the resistant cancer cell MCF-7/ADR and inhibitory effect of the P-glycoprotein expression levels” (Journal of Enzyme Inhibition and Medicinal Chemistry, 2023).

Tests used:
[1] = system: HepG-2; assay: MTT cell viability assay, HepG-2; type: cell-based; conditions: Homo sapiens, HepG2, 24 h incubation, mean ± standard error
Description: (§1) According to previous reports regarding the cytotoxic features of a numerous array of benzochromene scaffolds, compounds 4a − z have been elected to explore their cytotoxic ability against three tumour cell lines, including HCT-116 (colon cancer), MCF-7 (breast cancer), and HepG-2 (hepatocellular cancer), and employing the 3–(4,5-dimethylthiazol-2-yl)-2,5-diphenyl tetrazolium bromide (MTT) colorimetric assay as described in literature. Judges choice of such cell lines has been stimulated by the acknowledged antitumor performance of a substantial number of 1H-benzo[f]chromene and 4H-benzo[h]chromene molecules towards the asserted cell lines. […] Moreover, benzochromene derivatives with highly cytotoxic behaviour, 4a − d, 4g, 4i, 4k, 4n, 4q, 4 u, and 4w, are subjected to further inspection against ADR-resistant human breast cancer cells (MCF-7/ADR) and the two normal cell lines, HFL-1 and human diploid fibroblasts (WI-38). […] Also, the results are illustrated in Table 4.
(§2) The tumour cell lines MCF-7, HepG-2, and […] were obtained from the American Type Culture Collection (ATCC, Rockville, MD). The cells were grown on RPMI-1640 medium supplemented with 10% inactivated foetal calf serum and 50 µg/mL gentamycin. The cells were maintained at 37 °C in a humidified atmosphere with 5% CO2 and were subculture two to three times a week.
(§3) The cytotoxic activity was appraised, using the 3–(4,5-dimethylthiazol-2-yl)-2,5-diphenyl-tetrazolium bromide (MTT) colorimetric assay, as reported previously[57] and ELISA assay for MCF-7/ADR[75].

[2] = system: MCF-7; assay: MTT cell viability assay, MCF-7; type: cell-based; conditions: Homo sapiens, MCF7, 24 h incubation, mean ± standard error
Description: as §1, §2, §3

[3] = system: MCF-7/ADR cells; assay: Annexin V-FITC/PI apoptosis assay; type: cell-based, human; conditions: IC50 value, 24 h, untreated cells 2%
Description: Several lines of evidence indicate that many anticancer compounds exerted their effects by blocking the cell cycle progression, by inducing apoptosis, or the combined effect of both[67]. Also, P-gp inhibits apoptosis by preventing the release of cytochrome c which is mediated by the intrinsic mitochondrial pathway. To further assess the pivotal relation of the newly synthesised MCF-7/ADR anticancer compounds and apoptosis, phosphatidylserine (PS) translocation to the cell membrane as a marker for apoptosis was measured by the means of the Annexin V/PI double staining flow cytometric assay.
Apoptosis assay was performed with an Annexin V-FITC/PI double staining apoptosis detection kit (K101, Biovison, Milpitas, CA) using a flow cytometer. MCF-7/ADR cancer cells treated with different newly synthesised compounds (IC50 value) were harvested by trypsinization, washed twice with 4 °C PBS, and re-suspended in binding buffer. Annexin V-FITC and PI solutions were then added to stain the cells before analysis by flow cytometry A minimum of 10,000 cells per sample were acquired. Annexin V-FITC binding (FL1) and PI (FL2) were analysed using Cell Quest Pro software (BD Biosciences).

[4] = system: HCT-116; assay: MTT cell viability assay, HCT-116; type: cell-based; conditions: Homo sapiens, 24 h incubation, mean ± standard error
Description: as §1, §3

[5] = system: P-gp; assay: P-gp content in MCF-7/ADR cell lysate by ELISA; type: cell-based, human; conditions: MCF-7/ADR lysate; for IC50 at 48 h: human, MCF-7/ADR cells (cell lysate); for %Reduction of P-gp expression / IC50: 48 h
Protocol: P-gp pumps multiple types of drugs out of the cell, using energy generated from adenosine triphosphate (ATP), and confers MDR on cancer cells. It is one of the noteworthy problems in malignant tumour clinical therapeutics. […].
The content of P-gp in the MCF-7/ADR cell lysates after incubation with varying conc. (12.5–100 µM) of tested compounds 4b, 4c, 4d, 4q, and 4w following exposure for 48 h. was determined using commercial human P-gp ELISA Kit (MBS2506188, MyBioSource Inc., San Diego, CA). Absorption was recorded at 450 nm with a Spectramax Gemini fluorescence microplate reader (Molecular Devices, Sunnyvale, CA).

[6] = biological target: T1, P-gp (Homo sapiens, UniProt P08183); assay: Rhodamine 123 accumulation assay in MCF-7/ADR cells; type: cell-based; conditions: 4 h compound, then 5.25 μM Rho123 30 min
T1 construct: endogenous in cells; host or cells: MCF-7/ADR (Adriamycin-resistant human breast cancer cells)
T1 sequence (P08183 whole entry): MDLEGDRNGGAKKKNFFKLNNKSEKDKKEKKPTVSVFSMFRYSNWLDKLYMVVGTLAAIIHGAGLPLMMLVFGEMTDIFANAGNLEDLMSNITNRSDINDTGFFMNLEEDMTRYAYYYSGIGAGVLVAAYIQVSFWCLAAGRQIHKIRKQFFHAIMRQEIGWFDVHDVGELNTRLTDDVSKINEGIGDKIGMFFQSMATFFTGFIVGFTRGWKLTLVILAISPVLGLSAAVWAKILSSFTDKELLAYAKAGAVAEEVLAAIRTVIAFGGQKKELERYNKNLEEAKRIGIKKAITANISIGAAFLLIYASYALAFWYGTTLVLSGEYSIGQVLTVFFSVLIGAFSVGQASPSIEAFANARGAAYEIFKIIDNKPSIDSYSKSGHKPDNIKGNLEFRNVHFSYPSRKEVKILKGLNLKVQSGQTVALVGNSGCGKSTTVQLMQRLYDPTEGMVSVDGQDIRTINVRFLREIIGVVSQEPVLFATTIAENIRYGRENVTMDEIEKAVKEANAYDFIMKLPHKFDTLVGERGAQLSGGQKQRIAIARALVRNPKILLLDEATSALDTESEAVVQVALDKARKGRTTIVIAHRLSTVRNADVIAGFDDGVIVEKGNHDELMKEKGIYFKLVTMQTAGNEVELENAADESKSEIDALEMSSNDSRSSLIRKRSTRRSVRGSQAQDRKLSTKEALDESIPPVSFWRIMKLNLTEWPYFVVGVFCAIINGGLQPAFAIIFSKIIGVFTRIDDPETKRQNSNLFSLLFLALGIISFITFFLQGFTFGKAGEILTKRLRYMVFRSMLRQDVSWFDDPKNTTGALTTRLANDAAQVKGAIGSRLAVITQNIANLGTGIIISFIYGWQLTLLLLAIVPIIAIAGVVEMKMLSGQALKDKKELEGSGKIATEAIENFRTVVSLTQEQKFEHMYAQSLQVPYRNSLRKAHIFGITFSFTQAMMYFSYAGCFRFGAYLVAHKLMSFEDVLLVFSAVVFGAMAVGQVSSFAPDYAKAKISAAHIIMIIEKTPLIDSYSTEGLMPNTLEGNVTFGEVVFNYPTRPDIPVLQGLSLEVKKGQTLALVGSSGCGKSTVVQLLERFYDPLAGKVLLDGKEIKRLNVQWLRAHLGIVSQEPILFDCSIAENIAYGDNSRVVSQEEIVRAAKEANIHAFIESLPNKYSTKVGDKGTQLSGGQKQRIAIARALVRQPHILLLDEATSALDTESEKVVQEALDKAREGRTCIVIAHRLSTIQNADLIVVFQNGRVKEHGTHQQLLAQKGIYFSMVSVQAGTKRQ
Protocol: Furthermore, the reversion of P-gp mediated multidrug resistance may be achieved by down-regulation of P-gp expression and or inhibition of P-gp efflux function.
Briefly, resistant cancer cells were harvested, washed twice, and counted. […] of each well was measured using Spectramax Gemini fluorescence microplate reader (Molecular Devices, Sunnyvale, CA). The total content of Rhodamine in each sample was determined by comparison with a Rhodamine standard curve.

[7] = system: MCF-7/ADR; assay: Cytotoxicity against ADR-resistant breast cancer cells; type: cell-based, human; conditions: 24 h exposure, mean ± standard error
Description: as §1, §3

[8] = system: HFL-1; assay: Cytotoxicity against normal cell line HFL-1; type: cell-based; conditions: Homo sapiens, HFL1, 24 h, mean ± standard error
Description: as §1, §3

[9] = system: WI-38; assay: Cytotoxicity against normal cell line WI-38; type: cell-based; conditions: Homo sapiens, 24 h, mean ± standard error
Description: as §1, §3

[10] = Homo sapiens, NCI/ADR-RES, 24 h

| Structure (SMILES) | IC50 [1] [µM] | IC50 [2] [µM] | total apoptosis [3] [%] | IC50 [4] [µM] | IC50 at 48 h [5] [µM] | melting point [°C] | IC50 [6] [µM] | IC50 [7] [µM] | IC50 [7, 10] [µM] | IC50 [8] [µM] | %Reduction of P-gp expression ([5]; Conc. 12.5 µM) [%] | %Reduction of P-gp expression ([5]; Conc. 25 µM) [%] | %Reduction of P-gp expression ([5]; Conc. 50 µM) [%] | %Reduction of P-gp expression ([5]; Conc. 100 µM) [%] | IC50 [9] [µM] | IC50 [5] [µM] |
| --- | --- | --- | --- | --- | --- | --- | --- | --- | --- | --- | --- | --- | --- | --- | --- | --- |
| COc1cccc2c1C(=O)c1c(O)c3c(c(O)c1C2=O)C[C@@](O)(C(=O)CO)C[C@@H]3O[C@H]1C[C@H](N)[C@H](O)[C@H](C)O1 [Doxorubicin, reference compound] | 1.7 ± 0.4 | 0.8 ± 0.01 | 30 | 0.9 ± 0.02 | 50.9 |  |  |  |  |  |  |  |  |  |  |  |
| COc1ccc2ccc3c(c2c1)C(c1ccc(Cl)c(Cl)c1)C(C#N)=C(N)O3 (centres unmarked) [4q, 3-Amino-1–(3,4-dichlorophenyl)-9-methoxy-1H-benzo[f]chromene-2-carbonitrile] | 1.5 ± 0.1 | 2.3 ± 0.1 |  | 1.3 ± 0.1 | 45.3 | 255 to 256 | 39.1 | 13.4 ± 0.4 | 10.9 to 15.5 | 75.8 ± 0.2 | 19 | 32 | 51 | 76 | 72.8 ± 0.4 |  |
| COc1ccc2ccc3c(c2c1)C(c1ccc(OC)c(OC)c1)C(C#N)=C(N)O3 (centres unmarked) [4w, 3-Amino-1–(3,4-dimethoxyphenyl)-9-methoxy-1H-benzo[f]chromene-2-carbonitrile] | 52.3 ± 0.4 | 2.6 ± 0.5 |  | 6.2 ± 0.3 | 18.7 to 34.6 | 253 to 255 | 25.6 | 11.5 ± 0.6 | 10.9 to 15.5 | 47.1 ± 0.2 | 24 | 36 | 68 | 79 | 52.9 ± 0.3 | 32.4 |
| COc1ccc2ccc3c(c2c1)C(c1ccc(F)cc1F)C(C#N)=C(N)O3 (centres unmarked) [4k, 3-Amino-1–(2,4-difluorophenyl)-9-methoxy-1H-benzo[f]chromene-2-carbonitrile] | 8.2 ± 0.6 | 3 ± 0.3 |  | 4.1 ± 0.2 | 61.4 | 255 to 256 | 57.8 | 11.5 ± 0.6 | 10.9 to 15.5 | 59.6 ± 0.1 | 12 | 28 | 45 | 70 | 47.3 ± 0.2 |  |
| COc1ccc2ccc3c(c2c1)C(c1ccc(Cl)cc1)C(C#N)=C(N)O3 (centres unmarked) [4d, 3-Amino-1–(4-chlorophenyl)-9-methoxy-1H-benzo[f]chromene-2-carbonitrile] | 7.2 ± 0.1 | 0.6 ± 0.2 |  | 1.9 ± 0.4 | 13.5 | 257 to 258 | 10.6 | 12.5 ± 0.3 | 10.9 to 15.5 | 77.1 ± 1.1 | 45 | 60 | 81 | 91 | 83 ± 1.1 |  |
| COc1ccc2ccc3c(c2c1)C(c1cccc(Cl)c1)C(C#N)=C(N)O3 (centres unmarked) [4c, 3-Amino-1–(3-chlorophenyl)-9-methoxy-1H-benzo[f]chromene-2-carbonitrile] | 11 ± 0.2 | 8.5 ± 0.6 |  | 9.9 ± 0.1 | 18.7 to 34.6 | 262 to 263 | 23 | 10.9 ± 0.2 | 10.9 to 15.5 | 59.5 ± 1.1 | 26 | 40 | 70 | 84 | 61.5 ± 1.2 | 28.4 |
| COc1ccc2ccc3c(c2c1)C(c1ccccc1Cl)C(C#N)=C(N)O3 (centres unmarked) [4b, 3-Amino-1–(2-chlorophenyl)-9-methoxy-1H-benzo[f]chromene-2-carbonitrile] | 10.7 ± 0.5 | 11.3 ± 0.1 |  | 2.5 ± 0.2 | 18.7 to 34.6 | 266 to 267 | 20.5 | 13.3 ± 0.5 | 10.9 to 15.5 | 71.9 ± 0.1 | 30 | 42 | 72 | 90 | 66.7 ± 0.2 | 26.7 |
